Structures are written as SMILES. Where “and” joins values, the source holds several entries; their conditions need not be identical. Equal values may be shown once.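 Briefly, cells in 96-well plates were exposed to five compound concentrations for 48 h, and endpoints were estimated by linear interpolation. GI50 is the concentration that inhibits growth by half. TGI marks complete inhibition of growth.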

For the test, the system named is P388 leukemia. In words: NCI tumour cell line growth inhibition, 48 h.

For the compound `C=C1C(=O)C[C@@]23CCC[C@@]12CC(O)C3` (some centres undefined), the TGI stood at 25.3 µM.
Turning to `CC(=O)c1c(O)c(C)c(O)c2c1OC1=CC(=O)C(C(C)=O)C(=O)C12C` (centres undefined), the GI50 was 3.74 µM and 23.8 µM; the TGI is 26.3 µM and 60.3 µM.
Compound `CSc1nc2c(ncn2C2OCC(O)C(O)C2O)c(=O)[nH]1` (centres undefined) yielded a TGI of more than 100 µM.

For the origin of these results see PubChem BioAssay (NCI).
